Assay [1] addresses T1, rat mu-opioid receptor (rMOR) (Rattus norvegicus, UniProt P33535).
T1 construct: gene Oprm1; stably expressed in CHO cells (CHO-rMOR); cell membranes
As to the kind of experiment: competition with [3H]DAMGO, filtration, CHO-rMOR membranes. The assay is classed as binding.

Assay [2] concerns the target T1, rat mu-opioid receptor (rMOR). As to the kind of experiment: […]GTPγS binding, CHO-rMOR membranes. The assay is classed as biochemical. The note with it: O-1966 10 min before 0.5 µM morphine; 10 µM GDP, 50 mM HEPES, 100 mM NaCl, 5 mM MgCl2, 30 °C, 1 h; negative allosteric mode suggested only. In general terms: GTPγS resists hydrolysis and so accumulates on activated G proteins.

T1 sequence (P33535 whole entry): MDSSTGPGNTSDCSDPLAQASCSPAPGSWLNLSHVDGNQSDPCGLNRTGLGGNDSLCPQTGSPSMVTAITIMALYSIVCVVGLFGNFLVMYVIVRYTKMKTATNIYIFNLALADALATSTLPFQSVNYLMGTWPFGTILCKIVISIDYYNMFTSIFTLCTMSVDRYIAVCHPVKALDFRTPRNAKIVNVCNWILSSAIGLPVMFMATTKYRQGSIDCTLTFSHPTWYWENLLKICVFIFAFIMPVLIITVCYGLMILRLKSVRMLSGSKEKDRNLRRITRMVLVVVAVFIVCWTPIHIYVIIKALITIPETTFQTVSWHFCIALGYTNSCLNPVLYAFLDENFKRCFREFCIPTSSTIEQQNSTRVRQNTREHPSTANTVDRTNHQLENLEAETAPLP

Usually Ki stands for the dissociation constant of the complex between target and ligand, obtained from inhibition or displacement. Read a low Ki as a stronger hold on the target. Turning to `CCCCCCC(C)(C)c1cc(OC)c(C2(O)CCCC(C)C2)c(OC)c1` (centres unmarked) [O-1966], the affinity in assay [1] corresponds to a Ki of 3.04 µM. Also, the “% reduction of morphine response at 10 μM” value in assay [2] was 20%.

Values taken from PMC9068870, “Modulation of Morphine Analgesia, Antinociceptive Tolerance, and Mu-Opioid Receptor Binding by the Cannabinoid CB2 Receptor Agonist O-1966” (Frontiers in Pharmacology, 2022).
